# Marks after values point to notes of the source that are not given here.
# Legend:
# [1] = system: Staphylococcus epidermidis (ATCC 12228); experiment: In vitro sniff test and viability in reconstituted sweat, S. epidermidis; type: cell-based; set-up: key to Odor (Sniff) 6 h / Odor (Sniff) 24 h: 1. Absent (comparable to 0.1% chlorhexidine positive control); 2. Moderate; 3. Intense (bacteria-specific olfactory signature); details: 0.1% (BCP or chlorhexidine digluconate)
# Procedure: (§1) Staphylococcus epidermidis (ATCC 12228) and Corynebacterium striatum (ATCC 6940) strains were used. Each of these strains has a typical olfactory signature, the result of the metabolism of sweat components: • S. epidermidis: Valeric and propionic acid; • C. striatum: Sulphanyl alcohols. Each bacterial strain was inoculated into a reconstituted sweat solution in the presence of the BCP extract at 0.1%; 0.6% or 2% or 0.1% chlorhexidine digluconate (positive control). After 6 h and 24 h of incubation: The bacterial viability was evaluated by bacterial count expressed in CFU/ml. A sniff test was carried out to determine the olfactory signature qualitatively and semi-quantitatively (intensity of the smell) immediately after opening the vial, the smell was evaluated and scored by a trained operator: • 1. […] Moderate • 3. Intense (bacteria-specific olfactory signature)
# [2] = system: Corynebacterium striatum (ATCC 6940); experiment: In vitro sniff test and viability in reconstituted sweat, C. striatum; type: cell-based; set-up: key to Odor (Sniff) 6 h / Odor (Sniff) 24 h: 1. Absent (comparable to 0.1% chlorhexidine positive control); 2. Moderate; 3. Intense (bacteria-specific olfactory signature); details: 0.1% (BCP or chlorhexidine digluconate)
# Procedure: as §1
# IL1α (interleukin 1α) = experiment: IL1-alpha produced by NHKs under PMA stress (ELISA); type: cell-based, human
# Procedure: (§2) Normal Human Keratinocytes (NHK) were treated for 24 hours at 37° C. with the Bombax costatum Polysaccharide extract according to Example 1 (called BCP extract) at 0.01% and/or 0.05% of dry matter (DM) or by Dexamethasone or Indomethacin at 10^-7M (anti-inflammatory reference molecules). The cells were then treated by adding PMA at 10 μg/ml (Phorbol Myristate Acetate, inflammation-inducing agent) for 16 hours at 37° C. At the end of the treatment, the quantities of IL1α (interleukin 1α), PGE2 (Prostaglandin-E2), IL1β (Interleukin 1β), TNFα (Tumor Necrosis Factor α), IL6 (Interleukin 6) and IL8 (Interleukin 8) secreted were measured by the ELISA technique in the culture supernatants.
# (§3) The significance of the results was assessed by a one-way analysis of variance followed by a Tuckey test.
# IL1β (Interleukin 1β) = experiment: IL1-beta produced by NHKs under PMA stress (ELISA); type: cell-based, human
# Procedure: as §2, §3
# IL6 (Interleukin 6) = experiment: IL6 produced by NHKs under PMA stress (ELISA); type: cell-based, human
# Procedure: as §2, §3
# IL8 (Interleukin 8) = experiment: IL8 produced by NHKs under PMA stress (ELISA); type: cell-based, human
# Procedure: as §2, §3
# [3] = system: TNFα (Tumor Necrosis Factor α); experiment: TNF-alpha produced by NHKs under PMA stress (ELISA); type: cell-based, human
# Procedure: as §2, §3
# PGE2 (Prostaglandin-E2) = experiment: PGE2 produced by NHKs under PMA stress (ELISA); type: cell-based, human
# Procedure: as §2, §3
# hBD2 [4] = experiment: hBD2 gene expression in keratinocytes (real-time quantitative RT-PCR); type: cell-based, human; details: IL1β 100 ng/ml
# Procedure: (§4) Normal human epidermal keratinocytes were treated for 24 or 48 hours with BCP extract or IL1β at 100 ng/ml (positive reference). At the end of the treatment, the gene expression of hBD2, hBD3 and TLR2 was analyzed by real-time quantitative RT-PCR.
# hBD3 = hBD3 gene expression in keratinocytes (real-time quantitative RT-PCR); type: cell-based, human; details: IL1β 100 ng/ml
# Procedure: as §4
# TLR2 [5] = experiment: TLR2 gene expression in keratinocytes (real-time quantitative RT-PCR); type: cell-based, human; details: IL1β 100 ng/ml
# Procedure: as §4
# hBD2 [6] = experiment: Intracellular hBD2 production in keratinocytes (ELISA); type: cell-based, human; details: IL1β 100 ng/ml
# Procedure: (§5) Normal human epidermal keratinocytes were treated for 24 or 48 hours with BCP extract or IL1β at 100 ng/ml (positive reference). Moreover, the quantities of TLR2 and intracellular hBD2 were measured by ELISA.
# TLR2 [7] = experiment: TLR2 production in keratinocytes (ELISA); type: cell-based, human; details: IL1β 100 ng/ml
# Procedure: as §5
# [8] = Dexamethasone 0.1 μM 24 hours, then PMA 10 μg/ml 16 hours
# [9] = Dexamethasone 0.1 μM, vs PMA 10 μg/ml
compound,measurement,setting,value
"[H]/N=C(\N/C(=N/[H])NCCCCCCNC(=N)NC(=N)Nc1ccc(Cl)cc1)Nc1ccc(Cl)cc1 [Chlorhexidine, chlorhexidine digluconate]",Viability 24 h,[1]; control 8.69 ± 0.09,0.00 ± 0.00 Log10 CFU/ml
same,Viability 6 h,[1]; control 8.91 ± 0.21,0.00 ± 0.00 Log10 CFU/ml
same,Odor (Sniff) 6 h,[1]; control Intense,Absent
same,Odor (Sniff) 24 h,[1]; control Intense,Absent
same,Viability 6 h,[2]; control 8.51 ± 0.08,0.00 ± 0.00 Log10 CFU/ml
same,Viability 24 h,[2]; control 8.64 ± 0.19,0.00 ± 0.00 Log10 CFU/ml
same,Odor (Sniff) 6 h,[2]; control Moderate,Absent
same,Odor (Sniff) 24 h,[2]; control Moderate,Intense
C[C@@H]1C[C@H]2[C@@H]3CCC4=CC(=O)C=C[C@]4(C)[C@@]3(F)[C@@H](O)C[C@]2(C)[C@@]1(O)C(=O)CO [Dexamethasone],IL1α Average,IL1α (interleukin 1α); [8],230.583 pg/mL
same,IL1α Evolution,IL1α (interleukin 1α); [9],−38%
same,IL1β Average,IL1β (Interleukin 1β); [8],34.410 pg/mL
same,IL1β Evolution,IL1β (Interleukin 1β); [9],−32%
same,IL6 Average,IL6 (Interleukin 6); [8],2.090 pg/mL
same,IL6 Evolution,IL6 (Interleukin 6); [9],−70%
same,IL8 Average,IL8 (Interleukin 8); [8],4076.675 pg/mL
same,IL8 Evolution,IL8 (Interleukin 8); [9],−59
same,TNFα Average,[3]; [8],16.216 pg/mL
same,TNFα Evolution,[3]; [9],−52%
same,PGE2 Average,PGE2 (Prostaglandin-E2); [8],39.000 pg/mL
same,PGE2 Evolution,PGE2 (Prostaglandin-E2); [9],−94%
IL1β: IL1β at 100 ng/ml (positive reference),hBD2 RQ,"hBD2 [4]; 24 or 48 hours, control 1.12",3480.89
same,hBD2 Evolution,hBD2 [4]; vs Control,×3000 ***
same,hBD3 RQ,"hBD3; 24 or 48 hours, control 1.09",9.04
same,hBD3 Evolution,hBD3; vs Control,+730% ***
same,TLR2 RQ,"TLR2 [5]; 24 or 48 hours, control 1.08",3.26
same,TLR2 Evolution,TLR2 [5]; vs Control,+201% ***
same,hBD2 intracellular protein,"hBD2 [6]; 24 or 48 hours, control 141.5 ± 15.2",2162.7 ± 51.1 pg/mL
same,hBD2 protein Evolution,hBD2 [6]; vs Control,+1428% ***
same,TLR2 protein,"TLR2 [7]; 24 or 48 hours, control 735.9 ± 39.2",913.7 ± 30.5 pg/mL
same,TLR2 protein Evolution,TLR2 [7]; vs Control,+24% **

# Reference: US20230277613A1, “Polysaccharide-Rich Bombax Costatum Flower Extract” (priority 2020, published 2023)
